Data on 39 compounds can be found in patent US10246456B2, “IRAK4 inhibiting agents” (BIOGEN MA INC., priority 2014, dated 2019).

The target in the assay is IRAK4 (Homo sapiens (Human), UniProt Q9NWZ3). As to the kind of experiment: IRAK-4 AlphaScreen biochemical kinase assay. As to conditions: 1 nM IRAK4, 1 mM ATP, 3.5 h at RT. Here is the method:
The biochemical assay is in a AlphaScreen format. The kinase reaction is based on the IRAK-4 phosphorylation of a biotin labeled peptide. The phosphopeptide is incubated with anti-phosphothreonine antibody as well as streptavidin- and protein A-coated beads. Binding of the protein-A coated beads to the antibody and the streptavidin beads to the peptide, leads to an energy transfer from one bead to the other, ultimately producing a luminescent/fluorescent signal.

Bounds are passed on as bounds.

Sequence of IRAK4 (Q9NWZ3 whole entry, species assumed): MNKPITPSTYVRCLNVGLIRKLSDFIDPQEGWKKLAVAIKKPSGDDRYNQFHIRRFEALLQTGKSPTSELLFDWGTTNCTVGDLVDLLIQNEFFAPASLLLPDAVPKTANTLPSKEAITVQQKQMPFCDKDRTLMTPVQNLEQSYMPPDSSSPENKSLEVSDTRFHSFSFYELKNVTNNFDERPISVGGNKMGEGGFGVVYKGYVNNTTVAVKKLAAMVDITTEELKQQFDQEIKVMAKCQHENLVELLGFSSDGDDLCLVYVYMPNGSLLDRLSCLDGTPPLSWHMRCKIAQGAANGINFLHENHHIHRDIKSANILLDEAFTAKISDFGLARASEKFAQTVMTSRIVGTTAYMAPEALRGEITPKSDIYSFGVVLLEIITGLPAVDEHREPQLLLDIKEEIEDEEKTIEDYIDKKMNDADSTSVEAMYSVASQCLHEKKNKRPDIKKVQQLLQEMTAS

With `Cc1cccc(-c2ncc3ccc(-c4cccc(N)c4)cn23)n1` [Example 42, 3-(3-(6-methylpyridin-2-yl)imidazo[1,5-a]pyridin-6-yl)aniline], the IC50 was under 0.1 µM.
Next, `Cc1cccc(-n2ncc3cc(F)c(-c4cncc(N)c4)cc32)n1` [Example 43, 5-(5-fluoro-1-(6-methylpyridin-2-yl)-1H-indazol-6-yl)pyridin-3-amine]: 0.1 to 1 µM; `Cc1cccc(-n2ncc3cc(C)c(-c4cncc(N)c4)cc32)n1` [Example 44, 5-(5-methyl-1-(6-methylpyridin-2-yl)-1H-indazol-6-yl)pyridin-3-amine]: 1 to 10 µM; `N#Cc1cccc(-n2ncc3ccc(-c4cccc(CN)n4)cc32)n1` [Example 46, 6-(6-(6-(aminomethyl)pyridin-2-yl)-1H-indazol-1-yl)picolinonitrile]: 0.1 to 1 µM.
Compound `NCc1cccc(-c2ccc3cnn(-c4cccc(C(N)=O)n4)c3c2)n1` [Example 47, 6-(6-(6-(aminomethyl)pyridin-2-yl)-1H-indazol-1-yl)picolinamide] showed an IC50 of under 0.1 µM.
With `NCc1cccc(-c2ccc3cnn(-c4cccc(C(F)(F)F)n4)c3c2)n1` [Example 48, (6-(1-(6-(trifluoromethyl)pyridin-2-yl)-1H-indazol-6-yl)pyridin-2-yl)methanamine], the IC50 was under 0.1 µM.
In the case of `COC(=O)c1cc(-c2cncc(N)c2)cc2c1cnn2-c1cccc(C#N)n1` [Example 49, methyl 6-(5-aminopyridin-3-yl)-1-(6-cyanopyridin-2-yl)-1H-indazole-4-carboxylate], the IC50 is under 0.1 µM.
Next, `COC(=O)c1cc(-c2cncc(N)c2)cc2c1cnn2-c1cccc(C(F)(F)F)n1` [Example 50, methyl 6-(5-aminopyridin-3-yl)-1-(6-(trifluoromethyl)pyridin-2-yl)-1H-indazole-4-carboxylate]: under 0.1 µM; `Nc1cncc(-c2cc(C(=O)O)c3cnn(-c4cccc(C(F)(F)F)n4)c3c2)c1` [Example 51, 6-(5-aminopyridin-3-yl)-1-(6-(trifluoromethyl)pyridin-2-yl)-1H-indazole-4-carboxylic acid]: under 0.1 µM; `NC(=O)c1cc(-c2cncc(N)c2)cc2c1cnn2-c1cccc(C(F)(F)F)n1` [Example 52, 6-(5-aminopyridin-3-yl)-1-(6-(trifluoromethyl)pyridin-2-yl)-1H-indazole-4-carboxamide]: under 0.1 µM.
In turn, `NCc1cc(-c2cncc(N)c2)cc2c1cnn2-c1cccc(C(F)(F)F)n1` [Example 53, 5-(4-(aminomethyl)-1-(6-(trifluoromethyl)pyridin-2-yl)-1H-indazol-6-yl)pyridin-3-amine] registered an IC50 of 0.1 to 1 µM.
`Nc1cncc(-c2cc(CO)c3cnn(-c4cccc(C(F)(F)F)n4)c3c2)c1` [Example 54, (6-(5-aminopyridin-3-yl)-1-(6-(trifluoromethyl)pyridin-2-yl)-1H-indazol-4-yl)methanol] showed an IC50 of under 0.1 µM.
For the compound `Cc1cccc(-n2ncc3ccc(-c4cccc(C(C)N)n4)cc32)n1` (stereo not drawn) [Example 55, 1-(6-(1-(6-methylpyridin-2-yl)-1H-indazol-6-yl)pyridin-2-yl)ethanamine], the IC50 was under 0.1 µM.
As to `COC(=O)c1cc(-c2cccc(C(C)N)n2)cc2c1cnn2-c1cccc(C(F)(F)F)n1` (stereo not drawn) [Example 56, methyl 6-(6-(1-aminoethyl)pyridin-2-yl)-1-(6-(trifluoromethyl)pyridin-2-yl)-1H-indazole-4-carboxylate], the IC50 was under 0.1 µM.
Next, `CC(N)c1cccc(-c2cc(CO)c3cnn(-c4cccc(C(F)(F)F)n4)c3c2)n1` (stereo not drawn) [Example 57, (6-(6-(1-aminoethyl)pyridin-2-yl)-1-(6-(trifluoromethyl)pyridin-2-yl)-1H-indazol-4-yl)methanol]: under 0.1 µM; `CC(N)c1cccc(-c2cc(C(=O)N(C)C)c3cnn(-c4cccc(C(F)(F)F)n4)c3c2)n1` (stereo not drawn) [Example 58, 6-(6-(1-aminoethyl)pyridin-2-yl)-N,N-dimethyl-1-(6-(trifluoromethyl)pyridin-2-yl)-1H-indazole-4-carboxamide]: 0.1 to 1 µM; `CNC(=O)c1cc(-c2cccc(C(C)N)n2)cc2c1cnn2-c1cccc(C(F)(F)F)n1` (stereo not drawn) [Example 59, 6-(6-(1-aminoethyl)pyridin-2-yl)-N-methyl-1-(6-(trifluoromethyl)pyridin-2-yl)-1H-indazole-4-carboxamide]: under 0.1 µM.
Next, `CN(C)C(=O)c1cc(-c2cncc(N)c2)cc2c1cnn2-c1cccc(C(F)(F)F)n1` [Example 60, 6-(5-aminopyridin-3-yl)-N,N-dimethyl-1-(6-(trifluoromethyl)pyridin-2-yl)-1H-indazole-4-carboxamide]: 1 to 10 µM; `CNC(=O)c1cc(-c2cncc(N)c2)cc2c1cnn2-c1cccc(C(F)(F)F)n1` [Example 61, 6-(5-aminopyridin-3-yl)-N-methyl-1-(6-(trifluoromethyl)pyridin-2-yl)-1H-indazole-4-carboxamide]: under 0.1 µM; `NC1CCc2ccc(-c3ccc4cnn(-c5cccc(C(F)(F)F)n5)c4c3)nc21` (stereo not drawn) [Example 62, 2-(1-(6-(trifluoromethyl)pyridin-2-yl)-1H-indazol-6-yl)-6,7-dihydro-5H-cyclopenta[b]pyridin-7-amine]: 1 to 10 µM.
On to `NC1CCCc2ccc(-c3ccc4cnn(-c5cccc(C(F)(F)F)n5)c4c3)nc21` (stereo not drawn) [Example 63, 2-(1-(6-(trifluoromethyl)pyridin-2-yl)-1H-indazol-6-yl)-5,6,7,8-tetrahydroquinolin-8-amine], for which the IC50 is under 0.1 µM.
Next, `Nc1cncc(-c2ccc3cnn(-c4cccc(C(=O)NCCO)n4)c3c2)c1` [Example 65, 6-(6-(5-aminopyridin-3-yl)-1H-indazol-1-yl)-N-(2-hydroxyethyl)picolinamide]: 0.1 to 1 µM; `Nc1cncc(-c2ccc3cnn(-c4cccc(C(=O)NCCCO)n4)c3c2)c1` [Example 66, 6-(6-(5-aminopyridin-3-yl)-1H-indazol-1-yl)-N-(3-hydroxypropyl)picolinamide]: 0.1 to 1 µM.
The same measure for `CC(O)CNC(=O)c1cccc(-n2ncc3ccc(-c4cncc(N)c4)cc32)n1` (stereo not drawn) [Example 67, 6-(6-(5-aminopyridin-3-yl)-1H-indazol-1-yl)-N-(2-hydroxypropyl)picolinamide]: 1 to 10 µM; for `Nc1cncc(-c2ccc3cnn(-c4cccc(C(=O)N5CC(O)C5)n4)c3c2)c1` [Example 68, (6-(6-(5-aminopyridin-3-yl)-1H-indazol-1-yl)pyridin-2-yl)(3-hydroxyazetidin-1-yl)methanone]: 0.1 to 1 µM.
The same measure for `CN(C)CCNC(=O)c1cccc(-n2ncc3ccc(-c4cncc(N)c4)cc32)n1` [Example 69, 6-(6-(5-aminopyridin-3-yl)-1H-indazol-1-yl)-N-(2-(dimethylamino)ethyl)picolinamide]: 1 to 10 µM; for `N#CCCNC(=O)c1cccc(-n2ncc3ccc(-c4cncc(N)c4)cc32)n1` [Example 70, 6-(6-(5-aminopyridin-3-yl)-1H-indazol-1-yl)-N-(2-cyanoethyl)picolinamide]: 1 to 10 µM; for `N#CCCCNC(=O)c1cccc(-n2ncc3ccc(-c4cncc(N)c4)cc32)n1` [Example 71, 6-(6-(5-aminopyridin-3-yl)-1H-indazol-1-yl)-N-(3-cyanopropyl)picolinamide]: 0.1 to 1 µM.
`NCCNC(=O)c1cccc(-n2ncc3ccc(-c4cncc(N)c4)cc32)n1` [Example 72, N-(2-aminoethyl)-6-(6-(5-aminopyridin-3-yl)-1H-indazol-1-yl)picolinamide] came in with an IC50 of under 0.1 µM.
Next, `N#CCNC(=O)c1cccc(-n2ncc3ccc(-c4cncc(N)c4)cc32)n1` [Example 73, 6-(6-(5-aminopyridin-3-yl)-1H-indazol-1-yl)-N-(cyanomethyl)picolinamide]: 1 to 10 µM; `CS(=O)(=O)CCNC(=O)c1cccc(-n2ncc3ccc(-c4cncc(N)c4)cc32)n1` [Example 74, 6-(6-(5-aminopyridin-3-yl)-1H-indazol-1-yl)-N-(2-(methylsulfonyl)ethyl)picolinamide]: 1 to 10 µM; `N#Cc1cccc(-c2ncc3ccc(-c4cncc(N)c4)cn23)c1` [Example 75, 3-(6-(5-aminopyridin-3-yl)imidazo[1,5-a]pyridin-3-yl)benzonitrile]: 1 to 10 µM.
Take `N#Cc1cccc(-c2ncc3ccc(-c4cncc(N)c4)cn23)n1` [Example 76, 6-(6-(5-aminopyridin-3-yl)imidazo[1,5-a]pyridin-3-yl)picolinonitrile]: the IC50 is under 0.1 µM.
The same measure for `NC(=O)c1cccc(-c2ncc3ccc(-c4cncc(N)c4)cn23)n1` [Example 77, 6-(6-(5-aminopyridin-3-yl)imidazo[1,5-a]pyridin-3-yl)picolinamide]: 0.1 to 1 µM.
Next, `Nc1cncc(-c2ccc3cnc(-c4cccc(C(F)(F)F)n4)n3c2)c1` [Example 78, 5-(3-(6-(trifluoromethyl)pyridin-2-yl)imidazo[1,5-a]pyridin-6-yl)pyridin-3-amine]: under 0.1 µM; `CC(N)c1cccc(-c2ccc3cnc(-c4cccc(C(F)(F)F)n4)n3c2)n1` (stereo not drawn) [Example 79, 1-(6-(3-(6-(trifluoromethyl)pyridin-2-yl)imidazo[1,5-a]pyridin-6-yl)pyridin-2-yl)ethanamine]: under 0.1 µM; `NCc1cc(N)cc(-c2ccc3cnn(-c4cccc(C(F)(F)F)n4)c3c2)n1` [Example 80, 2-(aminomethyl)-6-(1-(6-(trifluoromethyl)pyridin-2-yl)-1H-indazol-6-yl)pyridin-4-amine]: under 0.1 µM.
`N#CCc1cccc(-n2ncc3ccc(-c4cncc(N)c4)cc32)n1` [Example 81, 2-(6-(6-(5-aminopyridin-3-yl)-1H-indazol-1-yl)pyridin-2-yl)acetonitrile] returned an IC50 of 0.1 to 1 µM.
`Nc1cncc(-c2ccc3cnn(-c4cccc(CC(=O)O)n4)c3c2)c1` [Example 82, 2-(6-(6-(5-aminopyridin-3-yl)-1H-indazol-1-yl)pyridin-2-yl)acetic acid] gave an IC50 of 1 to 10 µM.
